From patent publication US20240398781A1, “SPIROCYCLIC CYCLIC MODULATORS OF CHOLESTEROL BIOSYNTHESIS AND THEIR USE FOR PROMOTING REMYELINATION” (GENENTECH, INC., priority 2021, published 2024)
Where two headings read alike, the source gives them in different places.

Columns and labels:
[1] = test system: EpiSC-derived OPCs; test: In vitro phenotypic screening of OPCs (MBP staining, high-content imaging); type: cell-based, mouse; conditions: percentage of MBP+ oligodendrocytes, 3 days, 0.5 nM to 1000 nM, read-out: OPC EC50
How it was run: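 EpiSC-derived mouse OPCs seeded at 150,000/cm^2 on laminin in N2B27 without growth factors, treated 3 days at 37° C. with compound (8 points, 1000 nM to 0.5 nM). Fixed cells stained for MBP and DAPI and imaged; percentage of MBP+ oligodendrocytes fitted by Hill equation for EC50.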

[2] = target: human emopamil binding protein and human 7-dehydrocholesterol reductase co-expressing cells (hEBP-DHCR7 membrane) (Homo sapiens (Human), UniProt Q15125); test: Radioligand filter binding assay on hEBP-DHCR7 membrane; conditions: [3H]-(S)-6-(2-Methyl-3-(6-(trifluoromethyl)pyridin-3-yl)propyl)-2-thia-6-azaspiro[3.4]octane 2,2-dioxide radioligand, HEK293 membrane co-expressing hEBP and hDHCR7
Sequence of human emopamil binding protein and human 7-dehydrocholesterol reductase co-expressing cells (hEBP-DHCR7 membrane) (Q15125 whole entry): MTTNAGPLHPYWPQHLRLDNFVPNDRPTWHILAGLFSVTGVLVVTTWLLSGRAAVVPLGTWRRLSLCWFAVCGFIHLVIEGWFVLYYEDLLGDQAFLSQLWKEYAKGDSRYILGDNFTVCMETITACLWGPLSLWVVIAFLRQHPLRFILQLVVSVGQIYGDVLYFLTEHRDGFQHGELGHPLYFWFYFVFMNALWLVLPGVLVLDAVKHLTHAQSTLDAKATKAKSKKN
How it was run: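 HEK293 cells transiently co-expressing human EBP and DHCR7 supplied whole-cell membranes (10 μg/well), incubated 3 h at 22 °C with [3H]-labelled spiro-octane dioxide ligand (added at 25 nM) and compound (0.06-5000 nM final, 8 doses, n=2). Bound ligand was collected on PEI-treated GF/B filters and counted by scintillation. IC50 was Hill-fitted from % inhibition and reported as Ki.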

CC(C)n1nc(C(F)(F)F)cc1[C@H]1CC[C@H](N2CCC3(C2)CS(=O)(=O)C3)C1 (single isomer, unassigned) [10A*]
EC50 ([1]; Mus musculus, 72 h): 18 nM
Ki [2]: 18.7 nM

Cn1nc(C(F)(F)F)cc1[C@H]1CC[C@@H](N2CC[C@@]3(CCS(=O)(=O)C3)C2)CC1 (single isomer, unassigned) [38B*]
EC50 ([1]; Mus musculus, 72 h): 400 nM
Ki [2]: 50 nM

Cn1nc(C(F)(F)F)cc1[C@H]1CC[C@H](N2CCC[C@]3(CCS(=O)(=O)C3)C2)CC1 (single isomer, unassigned) [26B*]
EC50 ([1]; Mus musculus, 72 h): 130 nM
Ki [2]: 12 nM

O=S1(=O)CC2(CCN([C@H]3CO[C@H](c4ccc(C(F)(F)F)cc4)C3)C2)C1 (stereo in doubt) [19D*, 6-((3R,5S)-5-(4-(trifluoromethyl)phenyl)tetrahydrofuran-3-yl)-2-thia-6-azaspiro[3.4]octane 2,2-dioxide]
EC50 ([1]; Mus musculus, 72 h): 160 nM
Ki [2]: 33 nM

Cn1nc(C(F)(F)F)cc1[C@H]1CC[C@H](N2CC[C@@]3(CCS(=O)(=O)C3)C2)CC1 (single isomer, unassigned) [27A*]
EC50 [1]: 53 nM
Ki [2]: 260 nM

CC(C)n1nc(-c2cncc(C(F)(F)F)c2)cc1[C@H]1CC[C@H](N2CCC3(C2)CS(=O)(=O)C3)C1 (single isomer, unassigned) [13D*]
EC50 ([1]; Mus musculus, 72 h): 2.2 nM
Ki [2]: 19 nM

O=S1(=O)CC2(CCN([C@H]3CCN(c4ccc(C(F)(F)F)nc4)C3)C2)C1 (single isomer, unassigned) [9A*]
EC50 ([1]; Mus musculus, 72 h): 86 nM
Ki [2]: 58.3 nM

CC(C)n1nc(C(F)(F)F)cc1[C@H]1CC[C@@H](N2CCC3(C2)CS(=O)(=O)C3)C1 (single isomer, unassigned) [10B*]
EC50 ([1]; Mus musculus, 72 h): 20 nM
Ki [2]: 21.3 nM

O=S1(=O)CC2(CCN([C@H]3CCCN(c4ccc(C(F)(F)F)cc4)C3)C2)C1 (single isomer, unassigned) [22B*]
EC50 ([1]; Mus musculus, 72 h): 110 nM
Ki [2]: 58 nM

O=S1(=O)CC2(CCN([C@H]3CC[C@@H](c4ccc(C(F)(F)F)cc4)CC3)C2)C1 [Compound 3B, 6-((1s,4s)-4-(4-(trifluoromethyl)phenyl)cyclohexyl)-2-thia-6-azaspiro[3.4]octane 2,2-dioxide]
EC50 ([1]; Mus musculus, 72 h): 30 nM
Ki [2]: 27.5 nM

CC(C)n1nc(C2CC2)nc1[C@@H]1CC[C@@H](N2CCC3(C2)CS(=O)(=O)C3)C1 (single isomer, unassigned) [18C*]
EC50 ([1]; Mus musculus, 72 h): 240 nM
Ki [2]: 811 nM

Cn1nc(C(F)(F)F)cc1[C@H]1CC[C@H](N2CC[C@]3(CCS(=O)(=O)C3)C2)CC1 (single isomer, unassigned) [38C*]
EC50 [1]: 50 nM
Ki [2]: 260 nM

O=S1(=O)CC2(CCN([C@H]3CC[C@@H](c4ccc(C(F)(F)F)nc4)CC3)C2)C1 [Compound 14B, 6-((1s,4s)-4-(6-(Trifluoromethyl)pyridin-3-yl)cyclohexyl)-2-thia-6-azaspiro[3.4]octane 2,2-dioxide]
EC50 ([1]; Mus musculus, 72 h): 240 nM
Ki [2]: 28 nM

Cn1nc(C(F)(F)F)cc1[C@H]1CC[C@@H](N2CCC3(C2)CS(=O)(=O)C3)CC1 [Compound 2A, 6-((1s,4s)-4-(1-methyl-3-(trifluoromethyl)-1H-pyrazol-5-yl)cyclohexyl)-2-thia-6-azaspiro[3.4]octane 2,2-dioxide]
EC50 ([1]; Mus musculus, 72 h): 240 nM
Ki [2]: 44.5 nM

CC(C)n1nc(C2CC2)nc1[C@@H]1CC[C@H](N2CCC3(C2)CS(=O)(=O)C3)C1 (single isomer, unassigned) [18A*]
EC50 ([1]; Mus musculus, 72 h): 390 nM
Ki [2]: 960 nM

CC(C)n1nc(-c2cncc(C(F)(F)F)c2)cc1[C@@H]1CC[C@@H](N2CCC3(C2)CS(=O)(=O)C3)C1 (single isomer, unassigned) [13C*]
EC50 ([1]; Mus musculus, 72 h): 21 nM
Ki [2]: 23.5 nM

O=S1(=O)CC2(CCN(C3CCN(c4ccc(C(F)(F)F)cc4)CC3)C2)C1 [Compound 4, 6-(1-(4-(trifluoromethyl)phenyl)piperidin-4-yl)-2-thia-6-azaspiro[3.4]octane 2,2-dioxide]
EC50 ([1]; Mus musculus, 72 h): 23 nM
Ki [2]: 51.8 nM

O=S1(=O)CC2(CCN(C3CCN(c4ncc(C(F)(F)F)cc4Cl)CC3)C2)C1 [Compound 30, 6-(1-(3-chloro-5-(trifluoromethyl)pyridin-2-yl)piperidin-4-yl)-2-thia-6-azaspiro[3.4]octane 2,2-dioxide]
EC50 ([1]; Mus musculus, 72 h): 10 nM
Ki [2]: 13 nM

O=S1(=O)CC2(CCN([C@@H]3CO[C@H](c4ccc(C(F)(F)F)cc4)C3)C2)C1 (stereo in doubt) [19C*, 6-((3S,5S)-5-(4-(Trifluoromethyl)phenyl)tetrahydrofuran-3-yl)-2-thia-6-azaspiro[3.4]octane 2,2-dioxide]
EC50 ([1]; Mus musculus, 72 h): 270 nM
Ki [2]: 18 nM

O=S1(=O)CC2(CCN([C@@H]3CC[C@@H](c4ccc(C(F)(F)F)cc4)C3)C2)C1 [Compound 1B, 6-((1R,3R)-3-(4-(trifluoromethyl)phenyl)cyclopentyl)-2-thia-6-azaspiro[3.4]octane 2,2-dioxide]
EC50 ([1]; Mus musculus, 72 h): 1.8 nM
Ki [2]: 26.8 nM

CCn1nc(C(F)(F)F)cc1[C@H]1CC[C@H](N2CCC3(C2)CS(=O)(=O)C3)CC1 [Compound 15, 6-((1r,4r)-4-(1-Ethyl-3-(trifluoromethyl)-1H-pyrazol-5-yl)cyclohexyl)-2-thia-6-azaspiro[3.4]octane 2,2-dioxide]
EC50 ([1]; Mus musculus, 72 h): 44 nM
Ki [2]: 56 nM

CC(C)n1cc(C(F)(F)F)nc1[C@H]1CC[C@@H](N2CCC3(C2)CS(=O)(=O)C3)C1 (single isomer, unassigned) [20C*]
EC50 ([1]; Mus musculus, 72 h): 660 nM
Ki [2]: 420 nM

Cn1nc(C(F)(F)F)cc1[C@H]1CC[C@H](N2CCC[C@@]3(CCS(=O)(=O)C3)C2)CC1 (single isomer, unassigned) [26A*]
EC50 ([1]; Mus musculus, 72 h): 18 nM
Ki [2]: 25 nM

O=S1(=O)CC2(CCN(C3CCN(c4ccc(C(F)(F)F)cn4)CC3)C2)C1 [Compound 6, 6-(1-(5-(trifluoromethyl)pyridin-2-yl)piperidin-4-yl)-2-thia-6-azaspiro[3.4]octane 2,2-dioxide]
EC50 ([1]; Mus musculus, 72 h): 39 nM
Ki [2]: 23 nM

Cc1cc(C(F)(F)F)cnc1[C@H]1CC[C@H](N2CCC3(C2)CS(=O)(=O)C3)CC1 [Compound 47B, 6-((1r,4r)-4-(3-methyl-5-(trifluoromethyl)pyridin-2-yl)cyclohexyl)-2-thia-6-azaspiro[3.4]octane 2,2-dioxide]
EC50 ([1]; Mus musculus, 72 h): 20 nM
Ki [2]: 23 nM

O=S1(=O)CC2(CCN([C@@H]3CC[C@H](c4ccc(C(F)(F)F)nc4)C3)C2)C1 (single isomer, unassigned) [11C*]
EC50 ([1]; Mus musculus, 72 h): 24 nM
Ki [2]: 35 nM

CC(C)n1nc(-c2cncc(C(F)(F)F)c2)cc1[C@H]1CC[C@@H](N2CCC3(C2)CS(=O)(=O)C3)C1 (single isomer, unassigned) [13A*]
EC50 ([1]; Mus musculus, 72 h): 1.3 nM
Ki [2]: 6.9 nM

Cn1nc(C(F)(F)F)cc1[C@H]1CC[C@@H](N2CCC3(CC2)CS(=O)(=O)C3)CC1 [Compound 25A, 7-((1s,4s)-4-(1-Methyl-3-(trifluoromethyl)-1H-pyrazol-5-yl)cyclohexyl)-2-thia-7-azaspiro[3.5]nonane 2,2-dioxide]
EC50 ([1]; Mus musculus, 72 h): 100 nM
Ki [2]: 450 nM

Cn1nc(C(F)(F)F)cc1[C@H]1CC[C@H](N2CC[C@]3(CCS(=O)(=O)C3)C2)CC1 (single isomer, unassigned) [27B*]
EC50 [1]: 130 nM
Ki [2]: 180 nM

O=S1(=O)CC2(CCN(C3CC[C@H](c4ccc(C(F)(F)F)nc4)C3)C2)C1 (single isomer, unassigned) [11D*]
EC50 ([1]; Mus musculus, 72 h): 280 nM
Ki [2]: 40 nM
